Results: article PMC10065799, “High-throughput profiling of sequence recognition by tyrosine kinases and SH2 domains using bacterial peptide display” (eLife, 2023)

Legend:
Test in all cases: pTyr-Var library bacterial peptide display kinase screen (enrichment scores)
[1] = biological target: T1, c-Abl kinase domain (Mus musculus, UniProt P00520); assay type: biochemical;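 for screen: log2 fold change in enrichment of variant over reference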
T1 sequence (P00520 242-493 limits assumed): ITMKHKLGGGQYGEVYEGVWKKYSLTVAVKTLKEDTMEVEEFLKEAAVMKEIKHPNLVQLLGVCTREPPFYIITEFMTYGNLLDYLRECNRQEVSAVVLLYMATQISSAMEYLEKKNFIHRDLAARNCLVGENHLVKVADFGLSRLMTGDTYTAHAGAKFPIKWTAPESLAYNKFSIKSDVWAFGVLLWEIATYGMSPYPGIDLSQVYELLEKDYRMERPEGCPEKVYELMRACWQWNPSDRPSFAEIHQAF

[2] = test system: EPHB2 kinase domain; assay type: biochemical, human; conditions: sheet EPHB2; effect of variant peptide relative to its reference peptide in the pTyr-Var library screen (enrichment scores);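 note: log2 fold change in enrichment of variant over reference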
[3] = biological target: c-Src kinase domain (Homo sapiens, UniProt P12931); assay type: biochemical; conditions: sheet "Src";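 note: log2 fold change in enrichment of variant over reference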
[4] = test system: Fer kinase domain; assay type: biochemical, mouse; conditions: sheet "Fer";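 note: log2 fold change in enrichment of variant over reference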
[5] = sheet "Abl", effect of variant peptide relative to its reference peptide in pTyr-Var library screen (enrichment)
[6] = effect of the variant peptide relative to its reference peptide in the pTyr-Var library screen
[7] = variant peptide versus its reference peptide in the pTyr-Var library screen
[8] = fig5-data2, sheet "Abl", Screen for the variant/reference peptide pair, pTyr-Var library
[9] = value of the variant peptide against its reference peptide in the pTyr-Var library screen with Fer

AALRLYHVSDS [VIL1_Y256_K254R]
Screen [1, 5]: 2.11

ACQSLYGGFVE [MVD_Y164_R161Q]
Screen [2]: 1.328 | Screen [3, 6]: 0.09261

ADGLEYPRTGL [MMUT_Y287_S288P]
Screen [2]: -1.339

AGARMYGVLPW [PLP1_Y207_D203G]
Screen [2]: -1.831 | Screen [3, 7]: -0.8816

ARKCKYFKKHE [NFIX_Y40_R38C]
Screen [1, 8]: 1.494

AVARMYGVLPW [PLP1_Y207_D203V]
Screen [2]: -2.007 | Screen [3, 7]: -1.597

DFFDLYGGQKF [PTPN11_Y66_E69Q_YF]
Screen [3, 7]: 1.294

DPNQQYFIAMD [TBX15_Y159_H156N_YF]
Screen [1, 5]: -1.397

DTQNSYWCATS [TSC1_Y304_G305W]
Screen [1, 5]: 1.58

DWWQEYVLNES [TGM1_Y267_R264W]
Screen [3, 7]: 1.594

EAGKVYLKAAM [CBFB_Y96_P100A]
Screen [1, 8]: 0.4405

EALDFYGEVRI [PTEN_Y155_T160I]
Screen [4, 9]: 1.122

EAVKNYTEKRG [PBRM1_Y672_D674E]
Screen [1, 8]: -0.8395

EDKFMYLEFPQ [PTEN_Y240_F241L]
Screen [3, 7]: -1.097

EFRFIYMAVQH [PTPN11_Y515_Q510E_YF]
Screen [3, 7]: 0.0506

ELAVNYQEQAS [SLC9A9_Y591_I589V]
Screen [1, 5]: 1.481

EWLRRYLKNGK [HLA-C_Y195_E197K]
Screen [1, 8]: -0.1377

FCRHNYGVGES [HLA-DRB1_Y112_V115G_YF]
Screen [2]: -2.304

FLLRVYSIFSK [SGCE_Y38_T36R]
Screen [3, 7]: -1.068

FQKDVYNIPPS [NEDD9_Y177_D178N_YF]
Screen [2]: -2.279 | Screen [3, 7]: -0.2537

FSSLGYPLPEG [ZSWIM4_Y87_P89L_YF]
Screen [1, 5]: 1.474

FVSLIYTNFEA [GSTP1_Y109_I105V_YF]
Screen [4, 9]: 0.7121 | Screen [3, 6]: 0.3433

GCKNRYDEDKP [THAP1_Y14_K16E]
Screen [1, 5]: 1.101

GDEVEYMSVSF [GCLC_Y53_L55S]
Screen [4, 9]: -1.292

GEFFRYLAEVA [YWHAG_Y133_D129E_YF]
Screen [1, 5]: 3.326

GLTSTYVGIRK [ROBO1_Y932_A933V]
Screen [3, 7]: -1.42

GMTLSYLFWEP [NDUFS8_Y74_R77W]
Screen [4, 9]: 3.343

GQLIVYAPPEW [CNTN6_Y315_F314V]
Screen [2]: -0.7681 | Screen [4, 9]: -1.619 | Screen [3, 6]: 1.101

HCFAAYFQQGD [GPI_Y351_R347C]
Screen [1, 8]: 0.663

HGEAVYSRDCV [XPC_Y676_R671H]
Screen [1, 5]: 1.031 | Screen [3, 7]: 0.7041

HPAGNYSLSSV [ARFGAP3_Y473_Q468H]
Screen [1, 8]: -0.2234

IVRSLYEDQED [VHL_Y185_L188Q]
Screen [1, 5]: 2.774

IVTLKYPIEHG [ACTB_Y69_L65V]
Screen [1, 8]: -1.416

KACNPYKPPGP [TTN_Y25826_T25821K]
Screen [1, 5]: -2.971

KAEQLYIGVTV [EFHC2_Y509_E507Q]
Screen [4, 9]: 0.3011 | Screen [3, 6]: 0.06421

KFADVYVGICL [B3GALNT1_Y269_E266A]
Screen [4, 9]: -1.445 | Screen [3, 6]: -1.369

KGEDFYFVTCH [FHL1_Y149_C150Y_YF]
Screen [1, 8]: -2.007

KGEDFYSVTCH [FHL1_Y149_C150S]
Screen [4, 9]: 2.793 | Screen [3, 6]: 2.7

KMKGEYFRFLA [YWHAG_Y130_D129E_YF]
Screen [1, 5]: -2.114 | Screen [3, 7]: 0.3869

KTGDFYDLFGG [PTPN11_Y63_N58K_YF]
Screen ([4]; variant peptide relative to its reference peptide, pTyr-Var library screen enrichment): -1.345 | Screen [3, 7]: -0.7427

LAVNPYGPPDL [TTN_Y22579_P22584L]
Screen [1, 5]: -1.7

LEQDEYALHSH [HADHB_Y244_R247H]
Screen [2]: -1.049

LHVKMYNFLRS [ADGRG7_Y760_R756H]
Screen [2]: -0.4432

LINSVYGCSRQ [TMPRSS6_Y290_T287N]
Screen [3, 7]: 1.631

LITTLYISFLG [KCNQ1_Y267_G269S]
Screen [3, 6]: -1.106

LLEGKYEWQEV [CDKN1B_Y74_P69L]
Screen [4, 9]: 1.551

LPEHPYHSRPR [NDUFA8_Y142_N140H]
Screen [2]: 1.643 | Screen [1, 8]: -0.8491 | Screen [3, 7]: -0.5324

LTVVIYVLVGR [EPHA3_Y561_I564V]
Screen [2]: -4.573 | Screen [4, 9]: -2.144

LVRAFYCERRW [CARD11_Y970_R975W]
Screen [2]: -0.93

LWQSIYNLDAE [TNNT2_Y251_E254D]
Screen [3, 7]: 0.02036

MASISYDFCRV [BST2_Y6_T4I_YF]
Screen [4, 9]: -0.4486

NSAFFYKTAEE [CCT6B_Y250_G247A]
Screen [1, 8]: 0.06962

NTGGFYDLFGG [PTPN11_Y63_D61G_YF]
Screen [4, 9]: 1.072 | Screen [3, 7]: -0.08944

NVSILYTASQA [CTNNA1_Y222_P219S]
Screen [1, 8]: -0.9911

PADQAYSWFQH [NDST1_Y711_R709Q_YF]
Screen [4, 9]: 0.5054 | Screen [3, 7]: 1.532

PGVNFYFQVSA [TTN_Y28166_R28168Q_YF]
Screen [1, 5]: -2.22

PHMQTYEVDHN [SDHB_Y61_L65H]
Screen [2]: 0.7041

PIGRKYKKVRF [F8_Y442_R437P]
Screen [1, 8]: 0.1866

PLCPDYQEPSR [DDR2_Y481_R478C]
Screen [2]: 1.681

PNRILYGDFQQ [MYH7_Y715_R719Q]
Screen [3, 7]: -0.8592

PNRILYRDFRQ [MYH7_Y715_G716R]
Screen [3, 7]: -3.613

PRDGEYFTLQI [TP53_Y327_L323R]
Screen [3, 7]: -0.0193

PSSRDYKDNIK [PIGN_Y227_H229D]
Screen [1, 8]: -1.292

PVADPYDQSFE [P38A Y323]
Enrichment score (mean) ([1]; pTyr-Var library bacterial peptide display screen with c-Abl, 11-residue peptides (SITE_+/-5_AA) of annotated Abl substrate sites, sheet "Abl substrates", mean): 2.375

PVQAVYQKVVA [HBB_Y131_A130V]
Screen [3, 6]: 1.787

QDLLLYQTHSE [PKHD1_Y255_F253L]
Screen [2]: 1.452 | Screen [4, 9]: 1.348 | Screen [3, 7]: 0.9307

QHVPDYRQNGF [PCDHGA1_Y890_V894G_YF]
Screen [1, 8]: -1.497

QKKPCYEIRWK [PDGFRB_Y562_R561C]
Screen [1, 8]: 0.01021

QLQVFYATRDQ [MIPEP_Y579_L582R]
Screen [2]: -1.278 | Screen [4, 9]: -2.265 | Screen [3, 6]: -2.05

QPRDIYHQTWA [GBA_Y244_G241R]
Screen [3, 6]: -0.7899

QRVLLYVQRET [GRHL3_Y518_R520Q]
Screen [1, 8]: -0.6307

REETTYLPLTS [ICAM3_Y527_S525T]
Screen [3, 6]: -0.5459

RGVVMYTSKDR [ZG16B_Y136_M133V]
Screen [1, 5]: -3.766

RKETFYILSCR [GUCY2C_Y681_T682I]
Screen [3, 6]: -2.18

RVSSVYTRSTG [CCR5_Y339_A335V]
Screen [1, 8]: 1.763

SENFTYIWWLN [PSG4_Y271_K267E_YF]
Screen [1, 8]: 0.9727

SFSGEYGSGGG [ZG16_Y30_G32S_YF]
Screen [1, 5]: -2.078

SKLTIYDGRPS [MTM1_Y277_A279G]
Screen [3, 6]: -1.75

SLDLSYFHTSS [EMD_Y181_P183H_YF]
Screen [1, 8]: -1.954

SLIDMYSEVLA [OPA1_Y268_D273A]
Screen [3, 7]: 1.458

TKDTFYQQPMF [GBA_Y451_K452Q]
Screen [2]: 1.843 | Screen [4, 9]: 2.731

TKGNEYVFRVA [TTN_Y30829_E30825K]
Screen [1, 5]: -2.941

TKLKDYFIFNK [CCDC42_Y149_A144T_YF]
Screen [1, 8]: -0.5052

TNFSLYLRSLE [MTM1_Y71_R69S_YF]
Screen [1, 8]: -0.4541

VKANTYEKFWL [GATM_Y100_P105L_YF]
Screen [4, 9]: 2.288 | Screen [3, 6]: -1.276

VKFGAYINDFK [GLB1_Y488_N484K_YF]
Screen [1, 8]: -0.5379

VQEDIYDEFVV [ALDH2_Y332_E337V]
Screen [4, 9]: 3.107 | Screen [3, 6]: 0.8946

VVQGLYKSMRK [KBTBD2_Y250_P254R]
Screen [1, 8]: 0.59
